Test results taken from patent US7612087B2, “Heterocyclic compounds as inhibitors of beta-lactamases” (Novexel, priority 2002, dated 2009).

How the values were obtained:
[1] = tested on: P. aeruginosa 391HT7 (PSE); assay: MIC, micro-dilution in liquid medium, β-lactamine with product at 5 mg/l; assay type: cell-based; conditions: compound at 5 mg/l, 24 hours at 37° C.; for MIC of Cefotaxime in combination with the compound: Trial 11, 391HT7 P. aeruginosa PSE; for MIC of Piperacillin in combination with the compound: Trial 11, 391HT7 PSE
Summary of the method: (§1)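 Broth micro-dilution; β-lactamine dilution series + test product fixed at 5 mg/l; inoculate; 24 h, 37° C; MIC = no visible growth, mg/l.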

[2] = tested on: E. cloacae 293HT6 (Class C); assay: as above; assay type: cell-based; conditions: compound at 5 mg/l, 24 hours at 37° C.; for MIC of Piperacillin in combination with the compound: Trial 9, 293HT6 Class; for MIC of Cefotaxime in combination with the compound: Trial 9, 293HT6 E. cloacae Class C
Summary of the method: as §1

[3] = tested on: E. coli 250HT26 (SHV1); assay: as above; assay type: cell-based; conditions: compound at 5 mg/l, 24 hours at 37° C.; for MIC of Cefotaxime in combination with the compound: Trial 6, 250HT26 E. coli SHV1; for MIC of Piperacillin in combination with the compound: Trial 6, 250HT26 SHV1
Summary of the method: as §1

[4] = tested on: Serratia 301HT6; assay: as above; assay type: cell-based; conditions: compound at 5 mg/l; Trial 10, 301HT6 Serratia; 24 hours at 37° C.
Summary of the method: as §1

[5] = tested on: E. coli 250HT22 (Tem2); assay: as above; assay type: cell-based; conditions: compound at 5 mg/l, 24 hours at 37° C.; for MIC of Cefotaxime in combination with the compound: Trial 3, 250HT22 E. coli Tem2; for MIC of Piperacillin in combination with the compound: Trial 3, 250HT22 Tem2
Summary of the method: as §1

[6] = tested on: S. aureus 011GO66 (PeniR); assay: as above; assay type: cell-based; conditions: compound at 5 mg/l, 24 hours at 37° C.; for MIC of Cefotaxime in combination with the compound: Trial 1, 011GO66 S. aureus PeniR; for MIC of Piperacillin in combination with the compound: Trial 1, 011GO66 peniR
Summary of the method: as §1

[7] = tested on: E. coli 250HT23 (Class D); assay: as above; assay type: cell-based; conditions: compound at 5 mg/l, 24 hours at 37° C.; for MIC of Piperacillin in combination with the compound: Trial 8, 250HT23 Class D; for MIC of Cefotaxime in combination with the compound: Trial 8, 250HT23 E. coli Class D
Summary of the method: as §1

[8] = tested on: E. coli 250HT21 (Tem1); assay: as above; assay type: cell-based; conditions: compound at 5 mg/l, 24 hours at 37° C.; for MIC of Cefotaxime in combination with the compound: Trial 2, 250HT21 E. coli Tem1; for MIC of Piperacillin in combination with the compound: Trial 2, 250HT21 Tem1
Summary of the method: as §1

[9] = tested on: E. coli 250SJ1 (Tem7); assay: as above; assay type: cell-based; conditions: compound at 5 mg/l, 24 hours at 37° C.; for MIC of Cefotaxime in combination with the compound: Trial 5, 250SJ1 E. coli Tem7; for MIC of Piperacillin in combination with the compound: Trial 5, 250SJ1 Tem7
Summary of the method: as §1

[10] = tested on: P. aeruginosa 391HT8 (PSE); assay: as above; assay type: cell-based; conditions: compound at 5 mg/l, 24 hours at 37° C.; for MIC of Cefotaxime in combination with the compound: Trial 12, 391HT8 P. aeruginosa PSE; for MIC of Piperacillin in combination with the compound: Trial 12, 391HT8 PSE
Summary of the method: as §1

[11] = tested on: E. coli 250BE1 (SHV4); assay: as above; assay type: cell-based; conditions: compound at 5 mg/l, 24 hours at 37° C.; for MIC of Cefotaxime in combination with the compound: Trial 7, 250BE1 E. coli SHV4; for MIC of Piperacillin in combination with the compound: Trial 7, 250BE1 SHV4
Summary of the method: as §1

[12] = molecular target: T1, β-lactamase P99 (Enterobacter cloacae, UniProt P05364); assay: biochemical; conditions: 100 μM Nitrocefin, 50 mM sodium phosphate buffer pH7.0, 37° C.; read-out: IC50 nM/P99
T1 construct: The β-lactamases are isolated from bacterial strains which are resistant to penicillins and cephalosporins; endogenous in cells; host or cells: Enterobacter cloacae 293HT6 (natural producer; French-press lysate, 100,000 g supernatant)
Summary of the method: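 P99 β-lactamase, taken from the soluble fraction of an Enterobacter cloacae 293HT6 lysate, was assayed at 37° C. in 50 mM sodium phosphate buffer pH7.0 with 100 μM Nitrocefin as the chromogenic substrate. Hydrolysis was followed kinetically at 485 nm at initial speed, with and without a 5 mn enzyme–inhibitor preincubation. Inhibitors were tested at 6 or 8 concentrations in duplicate, and IC50 was fitted with GraFit.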

[13] = tested on: E. coli 250CF1 (Tem3); assay: microbe, parasite or virus in culture; assay type: cell-based; conditions: compound at 5 mg/l, 24 hours at 37° C.; for MIC of Cefotaxime in combination with the compound: Trial 4, 250CF1 E. coli Tem3; for MIC of Piperacillin in combination with the compound: Trial 4, 250CF1 Tem3
Summary of the method: as §1

[14] = molecular target: T2, β-lactamase TEM1 (Escherichia coli, UniProt P62593); assay: Inhibition of isolated β-lactamase Tem-1 (Nitrocefin hydrolysis); assay type: biochemical, E.coli 250HT21; conditions: 100 μM Nitrocefin, 50 mM sodium phosphate buffer pH7.0, 37° C.
T2 construct: The β-lactamases are isolated from bacterial strains which are resistant to penicillins and cephalosporins; endogenous in cells; host or cells: E. coli 250HT21 (natural producer; French-press lysate, 100,000 g supernatant)
Summary of the method: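 TEM-1 from soluble extract of E. coli 250HT21, normalized enzyme, 100 μM Nitrocefin in 50 mM sodium phosphate pH 7.0 at 37 °C. Initial-rate hydrolysis read kinetically at 485 nm, with and without 5 min enzyme–inhibitor preincubation. CI50 from 6 or 8 concentrations in duplicate.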

T2 sequence (P62593 24-286 limits assumed): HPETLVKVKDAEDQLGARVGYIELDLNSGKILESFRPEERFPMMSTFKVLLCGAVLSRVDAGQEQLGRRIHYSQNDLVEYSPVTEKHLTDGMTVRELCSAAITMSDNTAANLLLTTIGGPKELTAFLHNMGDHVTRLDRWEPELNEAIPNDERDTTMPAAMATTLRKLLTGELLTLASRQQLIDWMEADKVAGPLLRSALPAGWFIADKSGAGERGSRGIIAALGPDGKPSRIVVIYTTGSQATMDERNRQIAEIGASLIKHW
T1 sequence (P05364 21-381): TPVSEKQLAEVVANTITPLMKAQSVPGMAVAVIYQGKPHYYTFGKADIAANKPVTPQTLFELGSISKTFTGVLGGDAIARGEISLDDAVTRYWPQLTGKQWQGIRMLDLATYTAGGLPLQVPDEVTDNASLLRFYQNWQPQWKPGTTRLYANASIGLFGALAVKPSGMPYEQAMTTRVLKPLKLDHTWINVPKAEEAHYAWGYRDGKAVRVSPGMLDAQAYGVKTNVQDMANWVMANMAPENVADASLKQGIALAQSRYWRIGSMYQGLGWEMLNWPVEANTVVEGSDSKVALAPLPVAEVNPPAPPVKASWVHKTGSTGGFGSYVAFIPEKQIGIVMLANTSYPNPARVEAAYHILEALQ

Structure (SMILES) | MIC of Cefotaxime in combination with the compound [1] [µg/mL] | MIC of Piperacillin in combination with the compound [1] [µg/mL] | MIC of Piperacillin in combination with the compound [2] [µg/mL] | MIC of Cefotaxime in combination with the compound [2] [µg/mL] | MIC of Cefotaxime in combination with the compound [3] | MIC of Piperacillin in combination with the compound [3] [µg/mL] | MIC of Cefotaxime in combination with the compound [4] | MIC of Piperacillin in combination with the compound [4] [µg/mL] | MIC of Cefotaxime in combination with the compound [5] | MIC of Piperacillin in combination with the compound [5] [µg/mL] | MIC of Cefotaxime in combination with the compound [6] [µg/mL] | MIC of Piperacillin in combination with the compound [6] [µg/mL] | MIC of Piperacillin in combination with the compound [7] [µg/mL] | MIC of Piperacillin in combination with the compound [8] [µg/mL] | MIC of Piperacillin in combination with the compound [9] [µg/mL] | MIC of Piperacillin in combination with the compound [10] [µg/mL] | MIC of Piperacillin in combination with the compound [11] [µg/mL] | IC50 [12] [nM] | MIC of Piperacillin in combination with the compound [13] [µg/mL] | IC50 [14] [nM] | further results
CN(C)c1ccc(NC(=O)[C@H]2CC[C@@H]3CN2C(=O)N3OS(=O)(=O)[O-])cc1.[Na+] (relative stereo) [Example 40, sodium salt of trans-N-[4-(dimethylamino)phenyl]-7-oxo-6-(sulphooxy)-1,6-diazabicyclo[3.2.1]octane-2-carboxamide] | >40 | >40 | >40 | >40 | <=0.04 μg/ml | >40 | 0.08 µg/mL | 1.2 | <=0.04 μg/ml | >40 | 2.5 | 0.6 | 20 | 10 | >40 | >40 | >40 | 96 | >40 | 51 | MIC of Cefotaxime in combination with the compound [7]: <=0.04 μg/ml; MIC of Cefotaxime in combination with the compound [8]: <=0.04 μg/ml; MIC of Cefotaxime in combination with the compound [9]: 0.15 µg/mL; MIC of Cefotaxime in combination with the compound [10]: >40 µg/mL; MIC of Cefotaxime in combination with the compound [11]: 1.2 µg/mL; MIC of Cefotaxime in combination with the compound [13]: 0.6 µg/mL
CN(C)c1cccc(NC(=O)[C@H]2CC[C@@H]3CN2C(=O)N3OS(=O)(=O)[O-])c1.[Na+] (relative stereo) [Example 41, sodium salt of trans-N-[3-(dimethylamino)phenyl]-7-oxo-6-(sulphooxy)-1,6-diazabicyclo[3.2.1]octane-2-carboxamide] | >40 | >40 | >40 | >40 | <=0.04 μg/ml | >40 | 0.08 µg/mL | 1.2 | <=0.04 μg/ml | >40 | 2.5 | 1.2 | 40 | 40 | >40 | >40 | >40 | 120 | >40 | 14 | MIC of Cefotaxime in combination with the compound [7]: 0.08 µg/mL; MIC of Cefotaxime in combination with the compound [8]: <=0.04 μg/ml; MIC of Cefotaxime in combination with the compound [9]: 0.6 µg/mL; MIC of Cefotaxime in combination with the compound [10]: >40 µg/mL; MIC of Cefotaxime in combination with the compound [11]: >40 µg/mL; MIC of Cefotaxime in combination with the compound [13]: 2.5 µg/mL
O=C(NCc1ccncc1)[C@H]1CC[C@@H]2CN1C(=O)N2OS(=O)(=O)[O-].[Na+] (relative stereo) [Example 42, sodium salt of trans-7-oxo-N-[(4-pyridinyl)methyl]-6-(sulphooxy)-1,6-diazabicyclo[3.2.1]octane-2-carboxamide] | 20 | >40 | 1.2 | 0.3 | <=0.04 μg/ml | 5 | <=0.04 μg/ml | 0.6 | <=0.04 μg/ml | 2.5 | 2.5 | 1.2 | 5 | 1.2 | 2.5 | >40 | 5 | 70 | 2.5 | 25 | MIC of Cefotaxime in combination with the compound [7]: <=0.04 μg/ml; MIC of Cefotaxime in combination with the compound [8]: <=0.04 μg/ml; MIC of Cefotaxime in combination with the compound [9]: <=0.04 μg/ml; MIC of Cefotaxime in combination with the compound [10]: 20 µg/mL; MIC of Cefotaxime in combination with the compound [11]: <=0.04 μg/ml; MIC of Cefotaxime in combination with the compound [13]: <=0.04 μg/ml
NC(=O)Nc1cccc(NC(=O)[C@H]2CC[C@@H]3CN2C(=O)N3OS(=O)(=O)[O-])c1.[Na+] (relative stereo) [Example 46, sodium salt of trans-N-[3-[(aminocarbonyl)amino]phenyl]-7-oxo-6-(sulphooxy)-1,6-diazabicyclo[3.2.1]octane-2-carboxamide] |  | >40 | >40 |  |  | >40 |  | 1.2 |  | >40 |  | 0.6 | 10 | 5 | >40 | >40 | 40 | 70 | 2.5 | 26 | 
